Measured values reported in patent publication US10040836B2, “Peptides for the treatment of neurodegenerative diseases” (Ramot at Tel-Aviv University Ltd., priority 2012, dated 2018).
Where a SMILES comes first, the peptide text is derived from it. Where no end group is shown, it is not given here. The star is where a group is joined. Cbz = O=C(OCc1ccccc1)*; CH2F = FC*

Experiments:
caspase-3 = target: T1, caspase-3 (Homo sapiens, UniProt P42574); test: Fluorescent caspase-3 inhibition assay (caspase-3 inhibitor drug detection kit); assay type: biochemical; conditions: purified caspase-3/caspase-6 assay, FIGS. 1E-1F
T1 construct: purchased Abcam
T1 sequence (P42574 29-277): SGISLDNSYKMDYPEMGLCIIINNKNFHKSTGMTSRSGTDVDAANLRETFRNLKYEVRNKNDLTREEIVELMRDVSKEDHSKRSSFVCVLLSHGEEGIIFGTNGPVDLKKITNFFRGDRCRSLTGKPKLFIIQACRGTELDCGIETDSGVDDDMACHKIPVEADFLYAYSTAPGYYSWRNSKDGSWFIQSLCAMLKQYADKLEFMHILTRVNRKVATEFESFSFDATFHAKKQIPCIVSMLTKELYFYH

caspase-6 = target: T2, caspase-6 (Homo sapiens, UniProt P55212); test: Purified caspase-6 activity assay (Caspase-Glo 6, Z-VEID-aminoluciferin); assay type: biochemical
T2 construct: purchased Enzo life-science
T2 sequence (P55212 24-293): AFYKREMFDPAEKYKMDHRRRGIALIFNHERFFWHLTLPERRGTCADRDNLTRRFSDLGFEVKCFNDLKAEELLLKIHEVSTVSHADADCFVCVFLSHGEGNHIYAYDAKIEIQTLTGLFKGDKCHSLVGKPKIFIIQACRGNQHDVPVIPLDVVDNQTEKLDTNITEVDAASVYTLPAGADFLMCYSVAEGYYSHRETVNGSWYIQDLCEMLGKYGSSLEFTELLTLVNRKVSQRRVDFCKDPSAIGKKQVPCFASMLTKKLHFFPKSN
Procedure: For determining ED11 caspase-6 inhibition ability, the Caspase-Glo® 6 assay (Promega) was carried out according to the manufacturer's instructions. Briefly, 0.1 U/ml Purified caspase-6 (Enzo life-science) was incubated with 0-12 μM Z-VEID-aminoluciferin in the presence of 10 μM ED11 or DMSO as vehicle control, and luminescent signal of released aminoluciferin (as RLU) was detected using Synergy HT multi-mode micro-plate reader (Bio-Tek). For Michaelis-Menten curve plotting, initial velocity was calculated using linear regression of the progress curve linear segment, adjusted to RLU/min. For caspase-3 inhibition capability, caspase-3 inhibitor drug detection kit (Abcam) was performed according to the manufacturer's instructions.
EDII inhibits caspase-6 activity in a purified caspase-6 activity assay: To test the peptide ability to compete on caspase-6 activity, purified caspase-6 and Z-VEID-Aminoluciferin (Caspase-6 Glo™, Promega) were incubated with ED11, and bioluminescence signal was detected using SynergyHT microplate reader (FIGS. 1A-1D).

SH-SY5Y cells = test: Cell viability, proliferation and cell cycle in a basal state; assay type: cell-based, Human; conditions: up to 50 μM
Procedure: SH-SY5Y cells were pre-incubated with 25 μM ED11 for one hour. Then, 10 μM 5-bromo-2-deoxyuridine (BrdU) was added for 2 hours. Medium was discarded and cells were fixed with 70% ethanol. DNA denaturation was conducted with 1.5 M HCl exposure for 30 minutes. FITC conjugated anti-BrdU antibody was used to mark incorporated BrdU. DNA staining was performed by using propidium iodide (PI). 15,000 cells per sample were read using FACS-Calibur flow cytometer, and cell-cycle analysis was conducted after doublet discrimination.
To induce exogenous glutamate toxicity, SH-SY5Y cell were incubated with the indicated concentrations of L-Glutamate (Sigma) for 16 hours, in the presence of 20 μM ED11 or vehicle control. For the In-cell caspase-6 activity assay, green FLICA caspase-6 assay (ImmunoChemistry Technologies) was conducted according to the manufacturer's instructions. Briefly, cells were lifted by trypsin and adjusted to 1.5×10^6 cells/ml. Cells were incubated with FAM-VEID-FMK for 1 hour in 37° C., washed with PBS and 5,000 cells per sample were analyzed by flow-cytometry. For apoptosis detection, Annexin V-FITC apoptosis detection assay (Abcam) was conducted according to the manufacturer's instructions. Briefly, 2×10^5 cells were incubated with Annexin V-FITC and PI for 5 minutes in R.T, and 15,000 cells per sample were analyzed by flow-cytometry. For viability assessment, medium was depleted and washed twice with PBS, and alamar-blue dye (AbD serotec, 1/10 in culture medium) was added to the cells, as instructed by the manufacturer. Fluorescence was monitored at 530-560 nm excitation wavelength and 590 nm emission wavelength, and viability was calculated as percentage of untreated control.

COC(=O)C[C@H](NC(=O)[C@H](C)NC(=O)[C@@H](NC(=O)OCc1ccccc1)C(C)C)C(=O)CF [Z-VAD-FMK, reference compound] (Cbz-Val-Ala-Asp(OMe)-CH2F)
caspase-3 activity, specificity experiment (caspase-3): inhibits activity of caspase-3 and caspase-6 | caspase-6 activity, specificity experiment (caspase-6; purified caspase-3/caspase-6 assay, FIGS. 1E-1F): inhibits activity of caspase-3 and caspase-6

GRKKRRQRRRPPQSSEIVLDGTDN [ED11]
cell proliferation (BrdU) (SH-SY5Y cells): no effect | cell viability (ALAMAR blue) (SH-SY5Y cells; 48 hours incubation): no effect | cell cycle state (SH-SY5Y cells; O.N. incubation): no effect

modified peptide: ED11 with three of the amino acids in positions 17, 20 and 23 changed to Histidine (H) (GRKKRRQRRRPPQSSEHVLHGTHN)
caspase-6 activity (caspase-6; purified caspase-6, Z-VEID-aminoluciferin, 10 μM ED11): ineffective and didn't inhibit the caspase 6 activity
